Results taken from patent US20260008784A1 (VASTHERA CO., LTD., priority 2022, published 2026).
pEC50, pIC50: −log10 of the molar value.

What was measured:
[1] = test system: yeast thioredoxin (Trx)/yeast Trx reductase (TR); assay: Peroxidase activity assay (H2O2 reduction, NADPH oxidation); format: biochemical; settings: 50 μM test compound, 3 μM yeast Trx, 1.5 μM yeast TR, 250 μM NADPH, 1.2 mM H2O2, 30° C.; NADPH oxidized per minute
How it was run: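 Buffer: 50 mM HEPES pH 7.0, 1 mM EDTA, 250 μM NADPH, 3 μM yeast Trx, 1.5 μM yeast TR, 50 μM test compound; reaction started with 1.2 mM H2O2. A340 decrease followed at 30° C for 12 min. Initial rate is NADPH oxidized per minute, taken from the linear slope.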

[2] = test system: Tyr 857 phosphorylation of PDGF receptor-β (PDGFRβ) in HASMC; assay: Immunoblot of PDGF-mediated signaling in PrxII knock-down HASMC; format: cell-based, human; settings: for Effect on phosphorylation of Tyr 857 on PDGFR: HASMC depleted of PrxII expression, FIG. 2
How it was run: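 HASMC and PASMC with PrxII knocked down by siRNA were treated with test compounds and PDGF-stimulated. Lysates in Hepes pH 7.0/Triton X-100 buffer with phosphatase and protease inhibitors were immunoblotted with anti-phospho-Tyr 857 PDGFRβ antibody. Membranes were stripped and reprobed.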

[3] = test system: Tyr 1175 phosphorylation of VEGF receptor-2 (VEGFR2) in HAEC; assay: Immunoblot of VEGF-mediated signaling in PrxII knock-down HAEC; format: cell-based, human; settings: for Effect on phosphorylation of Tyr 1175 on VEGFR2: HAECs depleted of PrxII expression, FIG. 5
[4] = test system: human aortic smooth muscle cell (HASMC); assay: PDGF-induced proliferation assay, HASMC (PrxII siRNA); format: cell-based; settings: for Degree of HASMC proliferation: PDGF-BB 25 ng/mL, percent of untreated control; for pIC50: Homo sapiens, HASMC, 50% growth inhibition, PDGF-stimulated
[5] = test system: human aortic endothelial cell (HAEC); assay: VEGF-induced proliferation assay, HAEC (PrxII siRNA); format: cell-based; settings: for Degree of HAEC proliferation: VEGF-A 25 ng/mL, percent of untreated control; for pEC50: Homo sapiens, Endothelial cell, effective concentration increasing cell proliferation by 50%, VEGF-stimulated
[6] = test system: human pulmonary artery endothelial cell (PAEC); assay: VEGF-induced proliferation assay, PAEC (PrxII siRNA); format: cell-based; settings: for Degree of PAEC proliferation: VEGF-A 25 ng/mL, percent of untreated control; for pEC50: Homo sapiens, Endothelial cell, effective concentration increasing cell proliferation by 50%, VEGF-stimulated
Experimental: HAECs and PAECs were transfected with a PrxII-specific siRNA using RNAi MAX transfection reagent according to manufacturer's protocol. After 24 hours, transfected cells (3,000 cells/well) were seeded in a 96-well culture plate. At 12 h after seeding, cells were serum-starved for additional 18 h in EBM basal medium containing 0.5% FBS. Test compounds were serially diluted with the same basal medium containing 0.5% FBS, added to the cells ([…]), and incubated for 2 h. After treatment, cells were placed in fresh EBM medium containing 0.5% FBS and VEGF-A (25 ng/mL) for growth factor stimulation and further cultured for 24 h.
The degree of cell proliferation was measured using the Cell Titer-GLO kit ([…]). Data are the percent of luminescence intensity averaged from three replicate wells versus that of untreated control group.
In human aortic endothelial cell (HAEC) and human pulmonary artery endothelial cell (PAEC) in which PrxII was knocked out by transfecting the PrxII siRNA, the ability of test compounds to augment the VEGF-induced proliferation of vascular endothelial cells was evaluated. In Table 7, the degree of proliferation in the compound-treated groups is expressed as percent of the degree of proliferation in untreated control group. The effective concentrations of test compounds increasing cell proliferation by 50% (EC50) is also listed.

| Compound | Peroxidase activity for H2O2 reduction [1] [nmol/min] | Degree of HASMC proliferation ([4]; 2.5 nM) [%] | Degree of HASMC proliferation ([4]; 5 nM) [%] | Degree of HASMC proliferation ([4]; 10 nM) [%] | Degree of HASMC proliferation ([4]; 25 nM) [%] | pIC50 [4] | Degree of HAEC proliferation ([5]; 2.5 nM) [%] | Degree of HAEC proliferation ([5]; 5 nM) [%] | Degree of HAEC proliferation ([5]; 10 nM) [%] | Degree of HAEC proliferation ([5]; 25 nM) [%] | Degree of HAEC proliferation ([5]; 50 nM) [%] | Degree of HAEC proliferation ([5]; 100 nM) [%] | pEC50 [5] | Degree of PAEC proliferation ([6]; 2.5 nM) [%] | Degree of PAEC proliferation ([6]; 5 nM) [%] | Degree of PAEC proliferation ([6]; 10 nM) [%] | Degree of PAEC proliferation ([6]; 25 nM) [%] | Degree of PAEC proliferation ([6]; 50 nM) [%] | Degree of PAEC proliferation ([6]; 100 nM) [%] | pEC50 [6] | further results |
| --- | --- | --- | --- | --- | --- | --- | --- | --- | --- | --- | --- | --- | --- | --- | --- | --- | --- | --- | --- | --- | --- |
| CN1C(=O)C2(C)SSCC1C(=O)N2C (stereo not shown) [Compound 1, 1,6,8-trimethyl-2,3-dithia-6,8-diazabicyclo[3.2.2]nonane-7,9-dione] | 4.92 | 70.0 | 43.9 | 17.1 | 1.5 | 8.38 | 113.8 | 143.7 | 162.9 | 187.8 | 164.7 | 170.2 | 8.31 | 104.7 | 120.0 | 143.8 | 164.3 | 158.8 | 145.5 | 8.02 | Effect on phosphorylation of Tyr 857 on PDGFR [2]: strongly abolish the phosphorylation; Concentrations at which phosphorylation of Tyr 857 on PDGFRβ is significantly reduced ([2]; HASMCs, PrxII knock-down, FIG. 1): above 2.5 nM; Effect on phosphorylation of Tyr 1175 on VEGFR2 [3]: strongly abolish the phosphorylation; Concentrations at which phosphorylation of Tyr 1175 on VEGFR2 is significantly reduced ([3]; HAECs, PrxII knock-down, FIG. 4): above 2.5 nM |
| CN1C(=O)C2CSSC1(C)C(=O)N2Cc1ccc2ccccc2n1 (stereo not shown) [Compound 5, 1,8-dimethyl-6-(quinolin-2-ylmethyl)-2,3-dithia-6,8-diazabicyclo[3.2.2]nonane-7,9-dione] | 4.80 | 62.3 | 52.4 | 36.9 | 9.7 | 8.31 | 112.2 | 129.7 | 165.6 | 191.6 | 172.7 | 180.1 | 8.27 | 106.1 | 129.7 | 152.3 | 165.6 | 167.7 | 147.4 | 8.30 | Effect on phosphorylation of Tyr 857 on PDGFR [2]: strongly abolish the phosphorylation; Effect on phosphorylation of Tyr 1175 on VEGFR2 [3]: strongly abolish the phosphorylation |
| O=C1C2CSSC3(COCCN13)C(=O)N2Cc1ccccc1 (stereo not shown) [Compound 8, 12-benzyltetrahydro-5H,10H-4,10a-(epiminomethano)[1,4]oxazino[3,4-c][1,2,4]dithia zepine-5,11-dione] | 4.91 | 75.1 | 40.1 | 46.9 | 30.2 | 8.19 | 107.3 | 147.3 | 186.3 | 204.8 | 157.0 | 161.6 | 8.30 | 108.5 | 124.9 | 143.4 | 164.8 | 158.1 | 144.0 | 8.29 |  |
| CCN1C(=O)C2(C)SSCC1C(=O)N2CC (stereo not shown) [Compound 20, 6,8-diethyl-1-methyl-2,3-dithia-6,8-diazabicyclo[3.2.2]nonane-7,9-dione] | 4.78 | 85.8 | 58.7 | 34.9 | 12.3 | 8.17 | 116.4 | 120.3 | 136.3 | 155.9 | 169.5 | 187.6 | 7.99 | 109.2 | 124.3 | 133.5 | 166.5 | 180.9 | 180.4 | 7.99 | Effect on phosphorylation of Tyr 857 on PDGFR [2]: strongly abolish the phosphorylation; Effect on phosphorylation of Tyr 1175 on VEGFR2 [3]: strongly abolish the phosphorylation |
